This test relates to Phospho-T308 Akt. Put plainly: Phospho-T308 Akt detection using immunoblot (western blot) in PC-3 cells. It counts as cell-based. The conditions noted are these: 2 μM or 5 μM, concentration not given. The method, boiled down:
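PC-3 prostate cells, cultured overnight in F12K plus 10% FBS, were treated for 2 h at 37 °C in serum-free medium with compound A (1000× DMSO dilutions). Lysate protein was immunoblotted with anti-phospho-Akt Thr308. Bands were quantified by background-subtracted densitometry, giving EC50 by non-linear regression and percent decrease at 2 μM and 5 μM.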
In general terms: A western blot detects proteins with antibodies after separation by electrophoresis.

`O=C(NCc1nc(-c2c[nH]c3ncccc23)cs1)c1cccn(Cc2ccc(F)c(F)c2)c1=O` [Cpd 112]: the “Percent Inhibition of phospho-Akt (308) By Western” value is on record as “d (inhibition of less than 25%)”.
